{"source": "patent US20130296430A1", "about": "“COMPOSITIONS AND METHODS FOR TREATING AUTISM AND AUTISM SPECTRUM DISORDER” (priority 2012, published 2013)", "key": {"[1]": {"system": "children with autism", "test": "12-week placebo-controlled study of NAC: Repetitive Behavior Scale-Revised (RBS-R)", "assay_type": "in vivo, human", "from_the_text": "The Repetitive Behavior Scale-Revised (RBS-R) (Bodfish et al., The Repetitive Behavior Scale: A test manual (1998)) is an empirically derived clinical rating scale for measuring the presence and severity of a variety of forms of restricted, repetitive behavior that are characteristic of individuals with autism. The RBS-R consists of 6 subscales: stereotyped behavior, self-injurious behavior, compulsive behavior, routine behavior, sameness behavior, and restricted behavior. The scale provides an overall raw score for severity of repetitive behaviors and separate measures of severity for each subtype of repetitive behavior. High scores indicate more severe behavioral symptoms.\nA 12-week, double-blind randomized, placebo-controlled study of NAC in children with autism was conducted in the Autism & Developmental Disabilities Clinic in the Division of Child & Adolescent Psychiatry at Stanford University Medical Center. The recruitment period started in March 2009 and ended in September 2010. Subjects with and without mental retardation were included. After obtaining informed consent, subjects were screened and inclusion and exclusion criteria were assessed. No changes in eligibility criteria were applied throughout the study. This investigation was approved by the institutional review board at Stanford University School of Medicine. An investigational new drug application (IND#100905) was filed with the Food and Drug Administration, and the study was registered in National Institutes of Health at ClinicalTrials.gov (identifier number NCT00627705).\nAfter the screening phase, baseline measures were obtained from subjects continuing to meet inclusion and exclusion criteria. Subjects were then randomized to either placebo or active based on age and gender. As NAC is a nutritional supplement, the quality control is predictably variable and therefore purity is not as stringent as prescription medications. Therefore, in the present study, the stability of the compound was ascertained and the integrity of the active agent was protected by packaging each NAC doses in individual pockets. The active compound and matching placebo were provided by BioAdvantex Pharma, Inc. (Mississauga, Ontario, Canada). […] Subjects randomized to the active drug were initiated at the dose of 900 mg every day for the first 4 weeks, then 900 mg twice daily for 4 weeks and 900 mg three times daily for 4 weeks. […]\nIf a subject could not tolerate a specific dose, s/he would be maintained at the highest tolerated dose. Subjects were evaluated at baseline, week 4, week 8 and week 12. […]"}, "[2]": {"settings": "Noszal et al. 2000; cited from earlier work"}}}
{"smiles": "CC(=O)N[C@@H](CS)C(=O)O", "note": "[NAC, N-acetylcysteine]", "values": [{"measurement": "RBS total, Mean (SD)", "setting": "[1]; Baseline (before treatment), NAC group n = 15", "result": "33.1 (16.2)"}, {"measurement": "RBS total, Mean (SD)", "setting": "[1]; Week 12, NAC n = 14", "result": "22.3 (12.0)"}, {"measurement": "RBS-Total, treatment effect", "setting": "[1]; all randomized participants, NAC vs placebo, p=0.015", "result": "significant improvement"}, {"measurement": "RBS total, Cohen's d", "setting": "[1]; standardized mean difference NAC vs placebo at Week 12", "result": ".57"}, {"measurement": "half-cell potential of the NAC thiol/disulfide pair", "setting": "[2]", "result": "about +63 mV"}]}
